Measurements from patent US20180228828A1, “FIXED-DOSE COMBINATIONS OF ANTIVIRAL COMPOUNDS” (priority 2015, published 2018).

Assays:
[1] = human bioavailability comparison study, Tablet Formulation 10 vs co-administered single entity products; assay type: in vivo; conditions: for AUC(0-inf) / Cmax / AUC(0-t) / concentration at 24 h: human, plasma, oral, human plasma, fasted; for concentration at 24 h: read-out: C24 GM
Description: (§1) The blend is lubricated with magnesium stearate prior to roller compaction. Following roller compaction, the granules are further lubricated with magnesium stearate before compression on a rotary press. Tablet properties of apparent density and solid fraction are determined by gravimetric measurement of the drug product and geometric estimation of size with corresponding component powder measure of true density using helium pycnometry. The core tablets are then film coated and waxed to complete manufacture.
(§2) The reference in the study was co-administration of single entity products to achieve the equivalent total dose. In this cross-over design study all subjects were in the fasted state. Tablet Formulations 9b, and 10b were administered as Treatment C in the respective studies. Tablet Formulations 9a, and 10a were administered as Treatment B in the respective studies. The co-administration of the reference products were identified as Treatment A. After administration, blood samples were taken periodically, and the plasma concentration of the analytes, both primary compounds and metabolites, determined to generate the pharmacokinetic profiles and related specific metrics. These metrics included Cmax, AUC, and C24 (where quantifiable). Summary results from the human PK trials for Tablet Formulation 9 and Tablet Formulation 10 products are provided in Table 10 to Table 13 and Table 14 to 17, respectively. The resulting metrics were then compared in relation to the reference single entity products to assess similarity.

[2] = human bioavailability comparison study, Tablet Formulation 9 vs co-administered single entity products; assay type: in vivo; conditions: for AUC(0-inf) / Cmax / AUC(0-t) / concentration at 24 h: human, plasma, oral, human plasma, fasted; for concentration at 24 h: read-out: C24 GM
Description: as §1, §2

log D = assay type: physicochemical; conditions: pH=7
[3] = Treatment B (Tablet Formulation 10a) / Treatment A (single entities)
[4] = Treatment C (Tablet Formulation 10b) / Treatment A (single entities)
[5] = Treatment A: co-administered single entity products, equivalent total dose
[6] = Treatment A: co-administered single entity products, equivalent total dose, read-out: AUC0-24 GM
[7] = Treatment A: co-administered single entity products, equivalent total dose, read-out: AUC0-last GM
[8] = Treatment B: one unit Tablet Formulation 10a
[9] = Treatment C: one unit Tablet Formulation 10b
[10] = Treatment B (Tablet Formulation 9a) / Treatment A (single entities)
[11] = Treatment C (Tablet Formulation 9b) / Treatment A (single entities)
[12] = Treatment B: two units Tablet Formulation 9a
[13] = Treatment C: two units Tablet Formulation 9b

With `C=C[C@@H]1C[C@]1(NC(=O)[C@@H]1C[C@@H]2CN1C(=O)[C@H](C(C)(C)C)NC(=O)O[C@@H]1C[C@H]1CCCCCc1nc3ccc(OC)cc3nc1O2)C(=O)NS(=O)(=O)C1CC1` [Compound III, (1aR,5S,8S,10R,22aR)-N-[(1R,2S)-1-[(cyclopropylsulfonamido)carbonyl]-2-ethenylcyclopropyl]-14-methoxy-5-(2-methylpropan-2-yl)-3,6-dioxo-1,1a,3,4,5,6,9,10,18,19,20,21,22,22a-tetradecahydro-8H-7,10-methanocyclopropa[18,19][1,10,3,6]dioxadiazacyclononadecino[11,12-b]quinoxaline-8-carboxamide hydrate] as the molecule, how does the “AUC0-24 B/A GM ratio” value [1, 3] read?
The value was 0.71.

What about the “AUC0-last B/A GM ratio” value [1, 3] of the same molecule?
The value was 0.72.

And the “AUC0-∞ B/A GM ratio” value [1, 3]?
The value was 0.69.

What about the “C24 B/A GM ratio” value [1, 3] of the same molecule?
The value was 0.80.

And the “Cmax B/A GM ratio” value [1, 3]?
Its value is 0.70.

What about the “AUC0-24 C/A GM ratio” value [1, 4] of the same molecule?
Its value is 0.86.

And the “AUC0-last C/A GM ratio” value [1, 4]?
The value was 0.91.

What about the “AUC0-∞ C/A GM ratio” value [1, 4] of the same molecule?
Its value is 0.95.

What about the “C24 C/A GM ratio” value [1, 4] of the same molecule?
Its value is 0.85.

And the “Cmax C/A GM ratio” value [1, 4]?
Its value is 0.91.

And the AUC(0-inf) [1, 5]?
The AUC(0-inf) was 0.5 µM·h.

And the Cmax [1, 5]?
Its Cmax is 27.5 nM.

What about the AUC(0-t) [1, 6] of the same molecule?
The AUC(0-t) was 0.24 µM·h.

And the AUC(0-t) [1, 7]?
The AUC(0-t) was 0.36 µM·h.

What about the concentration at 24 h [1, 5] of the same molecule?
Its concentration at 24 h is 4.85 nM.

What about the AUC(0-t) ([1]; Treatment B: one unit Tablet Formulation 10a (300 mg Compound I, 100 mg Compound II, 50 mg Compound III), read-out: AUC0-last GM) of the same molecule?
Its AUC(0-t) is 0.26 µM·h.

What about the AUC(0-inf) [1, 8] of the same molecule?
Its AUC(0-inf) is 0.34 µM·h.

What about the Cmax [1, 8] of the same molecule?
Its Cmax is 19.3 nM.

What about the AUC(0-t) ([1]; Treatment B: one unit Tablet Formulation 10a, read-out: AUC0-24 GM) of the same molecule?
The AUC(0-t) was 0.17 µM·h.

And the concentration at 24 h [1, 8]?
The concentration at 24 h was 3.89 nM.

What about the AUC(0-t) ([1]; Treatment C: one unit Tablet Formulation 10b (300 mg Compound I, 100 mg Compound II, 50 mg Compound III), read-out: AUC0-last GM) of the same molecule?
Its AUC(0-t) is 0.33 µM·h.

What about the AUC(0-inf) [1, 9] of the same molecule?
The AUC(0-inf) was 0.47 µM·h.

And the Cmax [1, 9]?
Its Cmax is 24.9 nM.

And the AUC(0-t) ([1]; Treatment C: one unit Tablet Formulation 10b, read-out: AUC0-24 GM)?
The AUC(0-t) was 0.2 µM·h.

And the concentration at 24 h [1, 9]?
Its concentration at 24 h is 4.11 nM.

What about the “AUC0-24 B/A GM ratio” value [2, 10] of the same molecule?
The value was 0.72.

What about the “AUC0-last B/A GM ratio” value [2, 10] of the same molecule?
The value was 0.77.

And the “AUC0-∞ B/A GM ratio” value [2, 10]?
The value was 0.76.

And the “C24 B/A GM ratio” value [2, 10]?
The value was 0.85.

And the “Cmax B/A GM ratio” value [2, 10]?
The value was 0.64.

What about the “AUC0-24 C/A GM ratio” value [2, 11] of the same molecule?
The value was 1.00.

What about the “AUC0-last C/A GM ratio” value [2, 11] of the same molecule?
The value was 0.97.

And the “AUC0-∞ C/A GM ratio” value [2, 11]?
Its value is 0.88.

What about the “C24 C/A GM ratio” value [2, 11] of the same molecule?
The value was 1.04.

What about the “Cmax C/A GM ratio” value [2, 11] of the same molecule?
The value was 0.89.

What about the AUC(0-inf) [2, 5] of the same molecule?
The AUC(0-inf) was 0.7 µM·h.

And the Cmax [2, 5]?
The Cmax was 38.5 nM.

What about the AUC(0-t) [2, 6] of the same molecule?
The AUC(0-t) was 0.316 µM·h.

And the AUC(0-t) [2, 7]?
Its AUC(0-t) is 0.538 µM·h.

And the concentration at 24 h [2, 5]?
Its concentration at 24 h is 6.38 nM.

And the AUC(0-t) ([2]; Treatment B: two units Tablet Formulation 9a (450 mg Compound I, 100 mg Compound II, 50 mg Compound III), read-out: AUC0-last GM)?
Its AUC(0-t) is 0.415 µM·h.

And the AUC(0-inf) [2, 12]?
Its AUC(0-inf) is 0.53 µM·h.

And the Cmax [2, 12]?
The Cmax was 24.8 nM.

And the AUC(0-t) ([2]; Treatment B: two units Tablet Formulation 9a, read-out: AUC0-24 GM)?
The AUC(0-t) was 0.229 µM·h.

And the concentration at 24 h [2, 12]?
Its concentration at 24 h is 5.41 nM.

And the AUC(0-t) ([2]; Treatment C: two units Tablet Formulation 9b (450 mg Compound I, 100 mg Compound II, 50 mg Compound III), read-out: AUC0-last GM)?
Its AUC(0-t) is 0.522 µM·h.

And the AUC(0-inf) [2, 13]?
Its AUC(0-inf) is 0.617 µM·h.

And the Cmax [2, 13]?
Its Cmax is 34.1 nM.

What about the AUC(0-t) ([2]; Treatment C: two units Tablet Formulation 9b, read-out: AUC0-24 GM) of the same molecule?
Its AUC(0-t) is 0.317 µM·h.

And the concentration at 24 h [2, 13]?
The concentration at 24 h was 6.63 nM.

And the logD (log D)?
Its logD is -3.
